Results on 75 molecules are retold here after a melting point compilation (Tetko et al.).

What is called melting point is the temperature of the solid-liquid transition. For `CCC(C)C(=O)OC1CCC=C2C=CC(C)C(CCC3CC(O)CC(=O)O3)C21` (stereo not given), the melting point worked out at 152 °C.

Consider `CCOC(=O)c1c(SC)nn(C(=O)NNc2ccccc2)c1N`, for which the melting point was 205 °C.

`CCOP(=O)(OCC)Oc1c2cc(C(C)(C)C)cc1Cc1cc(C(C)(C)C)cc(c1O)Cc1cc(C(C)(C)C)cc(c1OP(=O)(OCC)OCC)Cc1cc(C(C)(C)C)cc(c1O)C2` gave a melting point of 203 to 205 °C.

Turning to `NCC(O)c1ccc(O)c(O)c1` (stereo not given), the melting point came out at 217 °C.

In turn, `Cc1cc2c(o1)-c1c(oc3ccc(Br)cc13)CCC2(C)c1ccccc1` (stereo not given) came in with a melting point of 127 °C.

Consider `NNc1ccc(I)cc1`, for which the melting point lay in the range of 101 to 102 °C.

As for `Cc1cccc(NC(=O)c2cnc(C(C)(C)C)c(Cl)n2)c1`, the melting point stood at 99 °C.

`CCCCCCNC(=S)NCCCCCC` returned a melting point of 39 to 41 °C.

As to `CN(C(=S)Cl)c1ccc(F)cc1`, the melting point lay in the range of 92 to 94 °C.

As for `CC(C)C1(NC(=O)c2ccccc2)COCOC1=O` (racemic), the melting point lay in the range of 161 to 162 °C.

The molecule `O=C(Cl)c1cc(-c2ccccc2)on1` had a melting point of 86 to 88 °C.

As to `C=C(C)C1CC=C(C)CC1` (stereo not given), the melting point is -74.3 °C.

`CCCc1cc(C(N)=S)ccn1` gave a melting point of 137 °C.

For the molecule `CCOC(=O)c1c(-c2ccc(-c3ccccc3)cc2)csc1N`, the melting point lay in the range of 155 to 157 °C.

For the molecule `COc1ccc(C(N)=S)cn1`, the melting point was 150 to 152 °C.

In turn, `C=CC(=O)OCCCCO` showed a melting point of -112 °C.

The molecule `Cc1cc[nH]n1` registered a melting point of 36.5 °C.

In turn, `COC1=CC(C)C2CC3OC(O)CC4C(C)=C(OC)C(=O)C(C2(C)C1=O)C34C` (stereo not given) came in with a melting point of 227 °C.

The molecule `O=c1[nH]c2scc(-c3ccccc3)c2c(=O)n1-c1cccc(Cl)c1` registered a melting point of 269 to 270 °C.

As for `O=Cc1ccc(Cn2cccn2)cc1`, the melting point fell in the range of 57 to 59 °C.

Molecule `CN(C)c1ccc(C2Nn3c(nnc3-c3cccc([N+](=O)[O-])c3)S2)cc1` (stereo not given) displayed a melting point of 197 to 199 °C.

`O=C(c1ccc(C(=O)C(Cl)Cl)cc1)C(Cl)Cl` returned a melting point of 143 °C.

`CN1C2CCCC1CC(=O)C2` returned a melting point of 63 to 65 °C.

The molecule `CC(=O)CCc1oc2ccc(Br)cc2c1-c1ccc(C)o1` came in with a melting point of 79 °C.

`CC1OC(OC2CCC3(C=O)C4CCC5(C)C(C6=CC(=O)OC6)CCC5(O)C4CCC3(O)C2)C(O)C(O)C1O` (stereo not given): the melting point came to 238 °C.

Regarding `Clc1nsc2ccccc12`, the melting point was found to be 39 °C.

`COc1cc2c(c(O)c1OC)C(C)N(C)CC2` (stereo not given) came in with a melting point of 112 °C.

Take `CSc1sc(C(N)=S)c2c1C(=O)CCC2`: the melting point was 232 to 233 °C.

On to `CCC(c1ccc2cc(OC)ccc2c1)C(C)(C)C(=O)O` (stereo not given), for which the melting point amounted to 140 °C.

Molecule `CC1(C)OC(=O)C(c2ccccc2)C(=O)O1` showed a melting point of 135 to 140 °C.

Consider `O=C(O)CCC(=O)c1cccs1`, for which the melting point is 121 to 122 °C.

Consider `Cc1cc(C)c([N+](=O)[O-])cc1C`, for which the melting point is 71 °C.

`Cc1cccc(C)c1NC(=O)CCl` registered a melting point of 148 °C.

Molecule `NCCNC(=O)CCn1cnc2c(N)ncnc21` registered a melting point of 196 °C.

Regarding `CC(C)(C)OC(=O)C[C@H]1C[C@@H](CC#N)OC(C)(C)O1`, the melting point was in the range of 65 to 70 °C.

`N#C/C(=N\Nc1cccc(O)c1)c1nc2ccccc2[nH]1`: the melting point is 238 °C.

`O=C(NC(Cc1cccnc1)C(=O)O)OCC1c2ccccc2-c2ccccc21` (stereo not given) came in with a melting point of 166 °C.

`CCOC(=O)CC(CC(=O)OCC)(c1cc(C)c(O)c(C)c1)c1cc(C)c(O)c(C)c1` registered a melting point of 178 °C.

Turning to `O=C(c1ccc2ccccc2c1)c1noc(-c2ccc(Br)cc2)c1S(=O)(=O)c1ccccc1`, the melting point was 173 °C.

In the case of `CCC(C)CCC(C)(O)CC` (stereo not given), the melting point is -67.5 °C.

`O=[N+]([O-])c1ccc(-c2ccc(-c3ccc([N+](=O)[O-])cc3)cc2)cc1`: the melting point worked out at 278 °C.

`COC(=O)c1scc(C)c1N=C=S`: the melting point lay in the range of 58 to 60 °C.

In the case of `Cc1nc(CCl)c(C)o1`, the melting point is 34 to 37 °C.

Take `Cc1ccc(/C=C2\CN(S(=O)(=O)c3ccc(C)cc3)c3ccccc3N2S(=O)(=O)c2ccc(C)cc2)cc1`: the melting point was found to be 155 °C.

In the case of `C=C(C)C(=O)C(=CC(=O)O)OC`, the melting point is 83 °C.

As for `O=C(NC(CO)Cc1ccccc1)OCc1ccccc1` (stereo not given), the melting point was 94 °C.

Regarding `FC(F)=C(Cl)Cl`, the melting point is -116 °C.

Turning to `C[C@]12CCC(=O)C=C1CC[C@@H]1[C@@H]2CC[C@]2(C)C(=O)CC[C@@]12O`, the melting point lay within 256 to 260 °C.

As for `Nc1cccc(S(=O)(=O)N2CCCCC2)c1`, the melting point was 117 to 118 °C.

`O=C=Nc1ccc2c(c1)OCCOCCOCCOCCOCCO2` gave a melting point of 61 to 63 °C.

`CC(C)(C)N(NC(=O)c1ccccc1)C(=O)c1ccc(Cl)cc1Cl` had a melting point of 134 °C.

`O=C(C1=NOC2C(=O)N(c3ccccc3[N+](=O)[O-])C(=O)C12)c1ccco1` (stereo not given): the melting point is 209 °C.

Consider `CCCCOc1ccc(-c2nnc3n2NC(c2ccco2)S3)cc1` (stereo not given), for which the melting point worked out at 127 °C.

The molecule `N#Cc1cc(-c2ccccc2)oc1N` returned a melting point of 196 to 197 °C.

As for `CCOc1ccccc1C=O`, the melting point stood at 21 °C.

The molecule `ClCc1ccc2c(c1)OCO2` returned a melting point of 20.5 °C.

Regarding `CNC(=O)N(C)c1nnc(C(F)(F)F)s1`, the melting point is 136 °C.

`Cc1nc(C)c(C)nc1C` yielded a melting point of 85 °C.

As to `O=C(N[C@H]1CCCC[C@H]1C(=O)O)OCc1ccccc1` (relative stereo), the melting point lay within 130 to 136 °C.

Molecule `OCc1ccc(-n2cccc2)cc1` showed a melting point of 102 to 105 °C.

In the case of `NCCc1ccc(-c2ccccc2)cc1`, the melting point fell in the range of 53 to 55 °C.

For `CC(=O)OC1(C(C)=O)CCC2C3CC(C(F)(F)F)C4=CC(=O)CCC4(C)C3CCC21C` (stereo not given), the melting point is 206 °C.

Take `Cc1ccc(C(=O)O)c(Cl)n1`: the melting point turned out to be 160 °C.

`CC(C)(C)OC(=O)N[C@H](C(=O)O)c1ccc(F)cc1` showed a melting point of 130 °C.

`N=C(N)NC(=N)NCCc1ccccc1` showed a melting point of 176 °C.

In turn, `O=C1CCCCCN1c1ccccc1` had a melting point of 57 °C.

On to `NC(=O)CC[C@H](NC(=O)C(F)(F)F)C(=O)O`, for which the melting point was in the range of 146 to 150 °C.

As for `BrC(Br)c1ccc(C(Br)Br)cc1`, the melting point lay in the range of 170 to 173 °C.

In the case of `COc1ccc(C(=O)C2=NOC3C(=O)N(c4ccc(F)cc4)C(=O)C23)cc1` (stereo not given), the melting point was found to be 141 °C.

Molecule `COc1cccc(C2NC(=O)NC(C)=C2C(=O)OC(C)C)c1OC` (stereo not given) showed a melting point of 167 °C.

As to `CCC(=O)c1ccc2ccccc2c1`, the melting point came to 60 °C.

`COc1cc(Cc2cnc(N)nc2N)cc(OC)c1Br` registered a melting point of 226 °C.

`O=[N+]([O-])c1ccc(-c2nnc3n2NC(c2ccccc2)S3)cc1` (stereo not given) gave a melting point of 220 °C.

Take `Cc1ccc(C2(C(=O)O)CCCC2)cc1`: the melting point was 181 to 184 °C.

Consider `O=CC1=C(Cl)c2cc(Cl)ccc2SC1`, for which the melting point was in the range of 84 to 86 °C.
